What was measured:
RAW264.7 = experiment: Cytotoxicity against mouse RAW264.7 cells assessed as cell viability at 10 to 30 uM incubated for 72 hrs by CellTiter-LumiII Luminescent assay; type: toxicity, cell-based; details: raw264.7, 72 h, dose 10-30 µM
KYSE-520 cell line = experiment: Antiproliferative activity against human KYSE-520 cells assessed as inhibition of cell growth incubated for 72 hrs by CellTiter-LumiII Luminescent assay; type: functional, cell-based; details: KYSE-520, 72 h
[1] = Hepatotoxicity in ICR mouse assessed as increase in plasma ALP level at 100 mg/kg, po administered once every 2 days and measured on day 14; type: toxicity, organism-based; details: in vivo, 336 h, time 14 day
MIA PaCa-2 = experiment: Antiproliferative activity against human MIA PaCa-2 cells harboring KRASG12C mutant assessed as inhibition of cell growth incubated for 72 hrs by CellTiter-LumiII Luminescent assay; type: functional, cell-based; details: MIA PaCa-2, 72 h
[2] = Hepatotoxicity in ICR mouse assessed as increase in plasma ALT level at 100 mg/kg, po administered once every 2 days and measured on day 14; type: toxicity, organism-based; details: in vivo, 336 h, time 14 day
[3] = Hepatotoxicity in ICR mouse assessed as increase in plasma AST level at 100 mg/kg, po administered once every 2 days and measured on day 14; type: toxicity, organism-based; details: in vivo, 336 h, time 14 day
[4] = target: T1, Tyrosine-protein phosphatase non-receptor type 11 (Homo sapiens, UniProt Q06124); experiment: Allosteric Inhibition of H2N-LN(pY)IDLDLV(dPEG8)LST(pY)ASINFQKASINFQK-amide-activated SHP2 (unknown origin) using DiFMUP as substrate pretreated with enzyme for 1 hr followed by substrate addition and measured after 20 mins by fluorescence based analysis
T1 sequence (Q06124 whole entry): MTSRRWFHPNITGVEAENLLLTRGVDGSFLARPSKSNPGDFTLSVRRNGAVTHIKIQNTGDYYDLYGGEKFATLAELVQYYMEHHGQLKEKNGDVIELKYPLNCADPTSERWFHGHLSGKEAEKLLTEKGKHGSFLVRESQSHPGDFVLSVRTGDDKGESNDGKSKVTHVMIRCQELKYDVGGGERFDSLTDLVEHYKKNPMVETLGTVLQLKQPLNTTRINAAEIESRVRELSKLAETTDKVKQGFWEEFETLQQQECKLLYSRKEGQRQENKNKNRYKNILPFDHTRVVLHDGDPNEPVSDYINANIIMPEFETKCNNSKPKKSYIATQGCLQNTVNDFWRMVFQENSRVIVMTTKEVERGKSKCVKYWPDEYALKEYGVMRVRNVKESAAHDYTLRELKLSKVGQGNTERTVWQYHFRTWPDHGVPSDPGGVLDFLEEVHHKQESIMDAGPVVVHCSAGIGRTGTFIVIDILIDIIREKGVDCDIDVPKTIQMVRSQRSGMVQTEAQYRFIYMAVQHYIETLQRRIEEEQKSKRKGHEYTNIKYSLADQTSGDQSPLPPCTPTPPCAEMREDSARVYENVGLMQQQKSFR

## CC1(N)CCN(c2cnc(-c3cccc(Cl)c3Cl)c(N)n2)CC1
RAW264.7
  Activity: Non-Toxic
KYSE-520 cell line
  IC50: 10800 nM
[1]
  Activity: Toxic
MIA PaCa-2
  IC50: 41900 nM
[2]
  Activity: Toxic
[3]
  Activity: Toxic

## NC(=S)N1CCN(c2cnc(-c3cccc(Cl)c3Cl)c(N)n2)CC1
[4]
  IC50: 1150 nM

## N/C(=N\c1cccnc1)N1CCN(c2cnc(-c3cccc(Cl)c3Cl)c(N)n2)CC1
[4]
  IC50: 142 nM

## Nc1nc(N2CCN(S(N)(=O)=O)CC2)cnc1-c1cccc(Cl)c1Cl
[4]
  IC50: 3400 nM

## COc1ccccc1/N=C(\N)N1CCN(c2cnc(-c3cccc(Cl)c3Cl)c(N)n2)CC1
[4]
  IC50: 112 nM

## N#Cc1ccc(/N=C(\N)N2CCN(c3cnc(Sc4cccnc4C(F)(F)F)c(N)n3)CC2)cc1
[4]
  IC50: 159 nM

## CN(CCN(C)c1cnc(-c2cccc(Cl)c2Cl)c(N)n1)C(=N)N
[4]
  IC50: 6250 nM

## N=C(N)N1CCN(c2cnc(-c3cccc(Cl)c3Cl)c(N)n2)C(=O)C1
[4]
  IC50: > 10000 nM

## N/C(=N\c1cncnc1)N1CCN(c2cnc(-c3cccc(Cl)c3Cl)c(N)n2)CC1
[4]
  IC50: 210 nM

## N#Cc1ccc(/N=C(\N)N2CCN(c3cnc(-c4cccc(Cl)c4Cl)c(N)n3)CC2)cn1
[4]
  IC50: 74.2 nM

## N/C(=N\c1cccs1)N1CCN(c2cnc(-c3cccc(Cl)c3Cl)c(N)n2)CC1
[4]
  IC50: 252 nM

## COc1ccc(/N=C(\N)N2CCN(c3cnc(-c4cccc(Cl)c4Cl)c(N)n3)CC2)cc1
[4]
  IC50: 52.7 nM

## N/C(=N\c1ccc(F)cc1)N1CCN(c2cnc(-c3cccc(Cl)c3Cl)c(N)n2)CC1
[4]
  IC50: 53.3 nM

## N/C(=N\c1ccsc1)N1CCN(c2cnc(-c3cccc(Cl)c3Cl)c(N)n2)CC1
[4]
  IC50: 48.1 nM

## N/C(=N\c1ccccc1)N1CCN(c2cnc(-c3cccc(Cl)c3Cl)c(N)n2)CC1
[4]
  IC50: 137 nM
